Experimental data taken from PMC7395068, “The evolution of strategies to minimise the risk of human drug-induced liver injury (DILI) in drug discovery and development” (Archives of Toxicology, 2020).
Where two headings read alike, the source gives them in different places.

Key:
[1] = system: hLiMTs; settings: cited from earlier work; for hLiMTs ATP <100uM: In vitro Assay, ref Proctor 2017
[2] = system: THLE-Null and THLE-3A4 cells; settings: In vitro Assay; ref Gustafsson 2014; cited from earlier work
[3] = cited from earlier work
[4] = system: HepG2 cells; settings: cited from earlier work; for Cluser analysis / Structural based (HCI): In vitro Assay, ref Persson 2013
[5] = system: HepG2 cells, primary human hepatocytes; settings: In vitro Assay; ref Garside 2014; cited from earlier work
[6] = system: hLiMTs; experiment: Combined HCI (HCS) and cellular ATP 3D assay in hLiMTs; settings: for AC50 / minimal effective concentration: Homo sapiens
[7] = cited from earlier work; remark: listed apart in the source
[8] = Plasma free fraction (fu) and unbound Cmax (Cmax,u); type: in vitro ADME, human; settings: unbound plasma Cmax
Experimental: The prediction of DILI severity was evaluated further using the 3D combined HCI assays using plasma-free fraction. The majority of fu values were obtained from literature, when unavailable in-house prediction was utilised. Unbound plasma Cmax concentrations (Cmax,u) were derived by multiplying total plasma Cmax with the corresponding free fraction (fu) for each compound.

[9] = system: PHH; settings: cited from earlier work; for PHH ATP <100uM: In vitro Assay, ref Proctor 2017
[10] = system: Upcyte human hepatocytes; settings: In vitro Assay; ref Tolosa 2019; cited from earlier work
[11] = system: PHH spheroids; settings: cited from earlier work
[12] = system: HepaRG spheroids
[13] = ref Chen 2011; cited from earlier work
[14] = system: hLiMTs
[15] = system: rBsep; settings: In vitro Assay; ref Dawson 2012; cited from earlier work
[16] = system: HepG2 cells; settings: cited from earlier work; for Structural based (HCI): In vitro Assay, ref O'Brien 2006
[17] = system: primary human hepatocytes, NIH3T3 fibroblasts, BSEP, CYP3A4; settings: cited from earlier work
[18] = system: isolated mouse liver mitochondria; settings: In vitro Assay; ref Porceddu 2012; cited from earlier work
[19] = system: HepaRG spheroids; experiment: Combined HCI (HCS) and cellular ATP 3D assay in HepaRG spheroids; settings: HepaRG; for AC50 / minimal effective concentration: Homo sapiens
[20] = read-out: Human plasma Cmax; total plasma Cmax.tot, median of 9 literature references; cited from earlier work
[21] = plasma free fraction; cited from earlier work
[22] = system: HepG2 cells; settings: In vitro Assay; ref Tolosa 2012; cited from earlier work
[23] = system: human hepatocytes; settings: In vitro Assay; ref Xu 2008; cited from earlier work
[24] = system: hu-MPCC; settings: In vitro Assay; ref Khetani 2012; cited from earlier work
[25] = system: RMPCC's; settings: In vitro Assay; ref Khetani 2012; cited from earlier work

CC(=O)N1CCN(c2ccc(OCC3COC(Cn4ccnc4)(c4ccc(Cl)cc4Cl)O3)cc2)CC1 (stereo not shown) [ketoconazole, reference compound]
hLiMTs ATP <100uM [1]: +VE (IC50 threshold of 100 µM) | hLiMTs/100uM, Proctor (2017) ([1]; hLiMTs, ATP, IC50 threshold 100 µM, ref Proctor et al. 2017): +VE (IC50 threshold of 100 µM) | THLE-Null [2]: +VE | DILI severity category (Chen et al. [2016]) ([3]; LTKB DILIrank category, ref Chen et al. 2016): Most | DILI severity category (Chen 2016) ([3]; human DILI classification, LTKB DILIrank, ref Chen et al. 2016): Most | DILI severity category ([3]; human DILI severity, ref Chen et al.): Most | DILI +VE (5-8), DILI -VE (-4) ([3]; ref Chen 2016): +VE | DILI severity category ([3]; ref Chen 2016): vMost-DILI-Concern | Cluser analysis [4]: +VE | Structural based (HCI) [4]: +VE | DILI in vitro assay prediction, Persson (2013) ([4]; Structural based (HCI), HepG2, ref Persson et al. 2013): +VE | Cluster 1-6 +VE Assay [5]: +VE | AC50 ([6]; read-out: ATP endpoint AC50): 9.09 µM | minimal effective concentration ([6]; read-out: ATP endpoint MEC): 6.84 µM | AC50 ([6]; read-out: HCS endpoint AC50): 12.4 µM | minimal effective concentration ([6]; read-out: HCS endpoint MEC): 5.88 µM | hLiMTs <25x Avg Cmax ATP ([6]; hLiMTs, ATP endpoint, cut-off <25x Avg Cmax): +ve | hLiMTs <100x Avg Cmaxu ATP ([6]; hLiMTs, ATP endpoint, cut-off <100x Avg Cmaxu): +ve (<100x Avg Cmaxu) | hLiMTs <25x Avg Cmax HCS ([6]; hLiMTs, HCS endpoints, cut-off <25x Avg Cmax): +ve | hLiMTs <100x Avg Cmaxu HCS ([6]; hLiMTs, HCS endpoints, cut-off <100x Avg Cmaxu): +ve (<100x Avg Cmaxu) | hLiMTs <25x Avg Cmax All ([6]; hLiMTs, all endpoints (ATP and HCS), cut-off <25x Avg Cmax): +ve | hLiMTs Cmax max All ([6]; hLiMTs, all endpoints, Cmax max used): +ve | hLiMTs Cmax min All ([6]; hLiMTs, all endpoints, Cmax min used): +ve | hLiMTs <10 uM All ([6]; hLiMTs, all endpoints, cut-off <10 uM): +ve (<10 uM) | hLiMTs <100x Avg Cmaxu All ([6]; hLiMTs, all endpoints, cut-off <100x Avg Cmaxu): +ve (<100x Avg Cmaxu) | Assigned DILI category ([7]; Chen et al. 2016 or literature alignment, ref Chen et al. 2016): 3 | In vivo DILI ([7]; […]): +VE | In vivo DILI ([7]; ref Albrecht 2019): +VE | In vivo DILI ([7]; ref Aleo 2019): +VE | In vivo DILI ([7]; ref Dawson 2012): +VE | In vivo DILI ([7]; ref Garside 2014): +VE | In vivo DILI ([7]; ref Gustafsson 2014): +VE | In vivo DILI ([7]; ref O'Brien 2006): +VE | In vivo DILI ([7]; ref Persson 2013): +VE | In vivo DILI ([7]; ref Porceddu 2012): +VE | In vivo DILI ([7]; ref Proctor 2017): +VE | In vivo DILI ([7]; ref Schadt 2015): +VE | In vivo DILI ([7]; ref Tolosa 2019): +VE | In vivo DILI ([7]; ref Vorrink 2018): +VE | In vivo DILI ([7]; ref Williams 2019): +VE | Human plasma Cmax,u [8]: 0.565 µM | PHH/100uM, Proctor (2017) ([9]; 2D PHH, ATP, IC50 threshold 100 µM, ref Proctor et al. 2017): +VE (IC50 threshold of 100 µM) | PHH ATP <100uM [9]: +VE (IC50 threshold of 100 µM) | Upcytes multi donor assay 14day data [10]: +VE | hLiMTs ATP <20 x Cmax ([11]; In vitro Assay, ref Vorrink 2018): +VE (IC20 < 20 × Cmax.tot cut-off) | DILI in vitro assay prediction, Vorrink (2018) ([11]; PHH spheroids, ATP, 14 days, IC20 < 20 × Cmax.tot, ref Vorrink et al. 2018): +VE (IC20 < 20 × Cmax.tot cut-off) | DILI prediction HepaRG spheroids (HCS-MEC) [12]: +VE (key: +VE: MEC < 25 × Cmax.tot cut-off) | DILI Score (FDA) (1-8) [13]: 8 | DILI prediction hLiMTs (HCS-MEC) [14]: +VE (key: +VE: MEC < 25 × Cmax.tot cut-off) | Inhibition of rBsep cutoff<1& cmax u>.2 [15]: +VE | Inhibition of rBsep cutoff<3 [15]: +VE | Structural based (HCI) [16]: +VE | DILI in vitro assay prediction, O'Brien (2006) ([16]; Structural based (HCI), HepG2, ref O'Brien et al. 2006): +VE (lowest HCI endpoint IC50 (or in the absence of dose–response < 100 µM) < 30 × total human plasma exposure levels (Cmax.tot)) | Cellular toxicity (3T3 cells) [17]: -VE | Combined Assay [17]: +VE | DILI in vitro assay prediction, Schadt (2015) [17]: +VE | GSH adduct HML [17]: -VE | Hepatocyte cellular toxicity [17]: +VE | MitoTox 3T3 [17]: -VE | TDI CYP3A4 [17]: -VE | hBSEP inhibition [17]: +VE | in vitro data EC2<=1x Cmax [18]: +VE | in vitro data EC20<=2uM [18]: -VE | HepaRG <25x Avg Cmax ATP ([19]; ATP endpoint, cut-off <25x Avg Cmax): +ve | HepaRG <100x Avg Cmaxu ATP ([19]; ATP endpoint, cut-off <100x Avg Cmaxu): +ve (<100x Avg Cmaxu) | HepaRG <25x Avg Cmax HCS ([19]; HCS endpoints, cut-off <25x Avg Cmax): +ve | HepaRG <100x Avg Cmaxu HCS ([19]; HCS endpoints, cut-off <100x Avg Cmaxu): +ve (<100x Avg Cmaxu) | HepaRG <25x Avg Cmax All ([19]; all endpoints (ATP and HCS), cut-off <25x Avg Cmax): +ve | HepaRG Cmax max All ([19]; all endpoints, Cmax max used): +ve | HepaRG Cmax min All ([19]; all endpoints, Cmax min used): +ve | HepaRG <10 uM All ([19]; all endpoints, cut-off <10 uM): +ve (<10 uM) | HepaRG <100x Avg Cmaxu All ([19]; all endpoints, cut-off <100x Avg Cmaxu): +ve (<100x Avg Cmaxu) | AC50 ([19]; read-out: ATP endpoint AC50): 8.42 µM | minimal effective concentration ([19]; read-out: ATP endpoint MEC): 7.27 µM | AC50 ([19]; read-out: HCS endpoint AC50): 15.4 µM | minimal effective concentration ([19]; read-out: HCS endpoint MEC): 0.713 µM | Cmax [20]: 11.3 µM | fu [21]: 0.050

C[C@@H]1C[C@H]2[C@@H]3CCC4=CC(=O)C=C[C@]4(C)[C@@]3(F)[C@@H](O)C[C@]2(C)[C@@]1(O)C(=O)CO [dexamethasone]
hLiMTs ATP <100uM [1]: -VE | Structural based (HCI) [22]: -VE | Structural based (HCI) [23]: -VE | DILI +VE (5-8), DILI -VE (-4) ([3]; ref Chen 2016): -VE | DILI severity category ([3]; ref Chen 2016): Ambiguous DILI-concern | Cluser analysis [4]: -VE | Structural based (HCI) [4]: -VE | Cluster 1-6 +VE Assay [5]: -VE | In vivo DILI ([7]; […]): -VE | In vivo DILI ([7]; ref Dawson 2012): -VE | In vivo DILI ([7]; ref Garside 2014): -VE | In vivo DILI ([7]; ref Gustafsson 2014): -VE | In vivo DILI ([7]; ref Khetani 2012): -VE | In vivo DILI ([7]; ref O'Brien 2006): -VE | In vivo DILI ([7]; ref Persson 2013): -VE | In vivo DILI ([7]; ref Porceddu 2012): +VE | In vivo DILI ([7]; ref Proctor 2017): -VE | In vivo DILI ([7]; ref Tolosa 2012): -VE | In vivo DILI ([7]; ref Tolosa 2019): -VE | In vivo DILI ([7]; ref Williams 2019): -VE | In vivo DILI ([7]; ref Xu 2008): -VE | PHH ATP <100uM [9]: -VE | HMPCC's [24]: -VE | Upcytes multi donor assay 14day data [10]: -VE | DILI Score (FDA) (1-8) [13]: 3 | Inhibition of rBsep cutoff<1& cmax u>.2 [15]: -VE | Inhibition of rBsep cutoff<3 [15]: +VE | Structural based (HCI) [16]: -VE | RMPCC's [25]: -VE | in vitro data EC2<=1x Cmax [18]: -VE | in vitro data EC20<=2uM [18]: -VE
